From paper PMC4311633, “Effects of RAMEA-complexed polyunsaturated fatty acids on the response of human dendritic cells to inflammatory signals” (Beilstein Journal of Organic Chemistry, 2014)

What was measured:
[1] = system: CD1a cell surface protein in moDC; assay: CD1a cell surface expression in moDC by flow cytometry; type: cell-based, human; details: 20 µM/mL, resting, LPS- or Poly(I:C)-activated moDC; for Expression of CD1a protein on the surface of moDC: RAMEA-complexed PUFA compared with DMSO/ethanol form
Experimental: (§1) Peripheral blood mononuclear cells (PBMC) were separated from buffy coats by Ficoll gradient centrifugation (Amersham Biosciences, Uppsala, Sweden). Monocytes were isolated by positive selection using magnetic cell separation with anti-CD14-conjugated microbeads (Miltenyi Biotech, Bergisch Gladbach, Germany). […] The purified cells were cultured at a density of 10^6 cells/mL in serum free AIMV medium supplemented with 80 ng/mL granulocyte-macrophage colony stimulating factor (GM-CSF) purchased from Gentaur and 50 ng/mL IL-4 from Peprotech.
(§2) On day 0 and day 2 of the in vitro moDC differentiation process the cultures were supplemented with GM-CSF and IL-4 and were treated with 20 µM/mL n−3 PUFAs. On day 5 the fully differentiated cells were activated by 500 ng/mL bacterial lipopolysaccharide (LPS) (Sigma Aldrich) or by 500 ng/mL Poly(I:C) (InvivoGen, San Diego, CA, USA) or were left untreated. The negative controls were treated by DMSO or by 20 µM/mL RAMEA. The positive controls were stimulated by LPS or Poly(I:C) in the absence of PUFAs.
Phenotyping of moDC was performed by flow cytometry using anti-CD83-PE and anti-CD1a-FITC specific antibodes from BioLegend at the protein level (San Diego, CA, USA). Fluorescence intensities were measured with FACSCalibur (BD Biosciences). Data analysis was performed with the FlowJo software (Tree Star, Ashland, OR, USA).

[2] = system: GPR120 receptor expression in moDC; assay: GPR120 expression in moDC by Q-PCR; type: cell-based, human; details: 20 µM/mL; LPS-activated moDC; Q-PCR normalized to cyclophilin
Experimental: as §1, §2
GPR120 expression levels were measured by real-time quantitative PCR (Q-PCR). […] Q-PCR was performed using the ABI StepOne Real Time PCR System (Applied Biosystems) and cycle threshold values were determined by using the StepOne v2.1 Software (Applied Biosystems).

[3] = Solubility in 20% randomly methylated CD solutions and complexation efficiency, cholesterol; type: physicochemical; details: for Solubilization of cholesterol: aqueous solution of 20% CD vs distilled water; for Complexation efficiency for Cholesterol: calculated from solubility data in 20% CD solution, 24 h, rt
[4] = Solubility in 20% randomly methylated CD solutions and complexation efficiency, ALA; type: physicochemical; details: calculated from solubility data in 20% CD solution, 24 h, rt
Experimental: (§3) The complexation efficiency calculated from the solubility data characterize the affinity of the various methylated CDs toward the lipids studied (Table 1). The complex association constants were not calculated because the intrinsic solubility in water is so low that it cannot be determined with a precision sufficient for the calculations.
(§4) The solubility of fatty acids in CD solutions was determined by adding PUFAs to the aqueous solutions at 20% RAMEA, RAMEB or RAMEG, respectively, stirring for 24 h at rt and then analyzed the filtered saturated solutions by HPLC using Hypersil ODS column (4 × 125 mm, particle size 5 μm) with guard column, mobile phase: acetonitrile/water 75:25 with 0.15% concentrated phosphoric acid, 2.0 mL/min flow rate, at 40 °C and UV detection at 210 nm.

[5] = Solubility in 20% randomly methylated CD solutions and complexation efficiency, EPA; type: physicochemical; details: calculated from solubility data in 20% CD solution, 24 h, rt
Experimental: as §3, §4

[6] = Solubility in 20% randomly methylated CD solutions and complexation efficiency, DHA; type: physicochemical; details: calculated from solubility data in 20% CD solution, 24 h, rt
Experimental: as §3, §4

[7] = Solubilization of n−3 PUFAs in aqueous methylated CD solutions; type: physicochemical; details: aqueous solution of 20% CD vs distilled water
Experimental: Cyclodextrins (CDs) are efficient solubilizers of lipids. […] The solubilizing effect of RAMEA in the case of n−3 PUFAs seems to be high enough for using it as a solubilizer without the risk of interaction with cholesterol-rich lipid rafts in the cell membrane.
as §4

Row | Compound | Proportion of inflammatory CD1a+ cells ([1]; PUFA dissolved in DMSO/ethanol) | Expression of CD1a protein on the surface of moDC [1] | GPR120 receptor expression [2] | Solubilization of cholesterol [3] | Complexation efficiency for Cholesterol [3] | Complexation efficiency for ALA [4] | Complexation efficiency for EPA [5] | Complexation efficiency for DHA [6] | Solubilization of n−3 PUFAs [7]
1 | CC/C=C\C/C=C\C/C=C\C/C=C\C/C=C\C/C=C\CCC(=O)O [DHA, docosahexaenoic acid] | more efficient in decreasing the proportion of inflammatory CD1a^+ cells, than ALA or EPA | solubilization method did not influence the effects | induced preferentially by DHA |  |  |  |  |  | 
2 | CC/C=C\C/C=C\C/C=C\CCCCCCCC(=O)O [ALA, α-linoleic acid] |  | solubilization method did not influence the effects |  |  |  |  |  |  | 
3 | randomly methylated α-cyclodextrin [RAMEA] |  |  |  | Neither RAMEA nor RAMEG could solubilize cholesterol to a measurable extent | <0.001 | 0.25 | 0.21 | 0.10 | solubilized
4 | randomly methylated β-cyclodextrin [RAMEB] |  |  |  | cholesterol could be dissolved by RAMEB only | 0.08 | 0.43 | 0.41 | 0.35 | solubilized
